# Values joined by “and” are separate entries in the source; they are usually repeats but may differ in a detail not shown here. Equal values may be shown once.
# Tested on: NCI-H196 complex spheroids with HUVEC/MSC, growth % T/C
# Test: Anticancer human tumor NCI-H196 cell line growth inhibition [Asc];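 note: spheroids exposed to compound for 7 days before measurement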;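 for viability, T/C: 100% = DMSO vehicle control wells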
# Details: for viability, T/C: stronger effect = lower value
# Protocol: Multicellular complex tumor spheroid response to apoptosis pathway targeting inhibitors Alrizomadlin, Pelcitoclax, and Dasminapant in combination with a variety of drugs and investigational agents in selected tumor cell lines
# The MDM2 inhibitor alrizomadlin, the Bcl-2/Bcl-xL inhibitor pelcitoclax, and the IAPs inhibitor dasminapant were evaluated both individually and in combination with standard of care and investigational anticancer small molecules within a complex spheroid model of solid tumors. . Complex spheroids include a stromal component modeled by human endothelial cells (HUVEC) and fibroblasts modeled by human mesenchymal stem cells (MSCs). The concentration ranges selected for each drug and investigational agent were based upon clinically achievable concentrations if the clinical Cmax of the agent was known.
# Compounds. The drugs and investigational agents: alrizomadlin (APG-115; NSC831270), pelcitoclax (APG-1252; NSC835773), dasminapant (APG-1387;NSC834197), TAK-243 (NSC785004), copanlisib (NSC809693), olaparib (NSC753686), talazoparib (NSC767125), cobimetinib (NSC 768068), eltanexor (KPT-8602, NSC 794443), abemaciclib (NSC 768073), sotorasib (NSC818433), adagrasib (NSC 831453), MRTX-1133 (NSC 836407), Iadademestat (ORY1001, NSC 806812), and RMC-4630 (NSC839698), were obtained from the NCI Developmental Therapeutics Program Chemical Repository. The FDA-approved anticancer drug set is available from the Developmental Therapeutics Program at https://dtp.cancer.gov/organization/dscb/obtaining/available plates.htm. […] The stock solutions were prepared in dimethyl sulfoxide (DMSO, Sigma-Aldrich, St. Louis, MO, cat. D2650) at 800-fold the tested concentration and stored at -70 degrees C prior to their use. All drugs and investigational agents were tested over a range starting from a high concentration at or near the clinical Cmax and decreasing in half-log increments. If the clinical Cmax for an agent had not been determined, the highest concentration tested was 10 microM.
# The patient-derived cancer (PDC) cell lines include five colon adenocarcinomas: 186277-243-T-J2-PDC, 616215-338-R-J1-PDC, 439559-082-T-J2-PDC, 463943-066-T-J2-PDC, and 519858-162-T-J1-PDC; three pancreatic carcinomas: 323965-272-R-J2-PDC, 521955-158-R6-J3-PDC, and 521955-158-R2-J5-PDC; two uterine sarcomas: 327498-152-R-J2-PDC and 993429-296-R-J1-PDC; two rhabdomyosarcomas: 755483-174-R-J1-PDC and 772245-204-R-J1-PDC; two soft tissue sarcomas: 126254-015-R-J1-PDC and 494315-158-R-J1-PDC; two malignant fibrous histiocytomas: 317291-083-R-J1-PDC and 596521-263-R-J1-PDC; two breast carcinomas: 171881-019-R-J1-PDC and 885512-296-R-J2-PDC; and one ovarian carcinoma: 6556581-035-R-J-PDC were obtained from the NCI PDMR, (https://pdmr.cancer.gov). The established cell lines HSSY-2 synovial sarcoma (RRID:CVCL 8719), SYO-1 synovial sarcoma (RRID:CVCL_7146), MPNST malignant peripheral neural sheath tumor were obtained from the Sloan Kettering Institute. The following established cell lines were purchased from the American Type Culture Collection (ATCC, Manassas, VA), Sor the received from the NCI repository:, PANC-1 pancreatic carcinoma (CRL-1469, RRID:CVCL_0480), OVCAR-5 ovarian carcinoma (RRID:CVCL_1628), OVCAR-8 ovarian carcinoma (RRID:CVCL_1629), , MCF-7 breast carcinoma (CRL-12584, RRID:CVCL_0031), MDA-MB-231 breast carcinoma (CRL-12532, RRID:CVCL_0062), NCI-H1876 small cell lung carcinoma (CRL-5902, RRID:CVCL_1503), NCI-H510A small cell lung carcinoma (HTB-184, RRID:CVCL_1565), NCI-H1417 (CRL-5869, RRID:CVCL_1469), and NCI-H196 small cell lung carcinoma (CRL-5823, RRID:CVCL_1509). Dr. Peter Houghton (Greehey Children's Cancer Research Institute, University of Texas Health Science Center, San Antonio, TX) provided Rh-18 rhabdomyosarcoma (RRID:CVCL_1659). Pooled donor human umbilical vein endothelial cells (HUVEC, Lonza, cat. CC-2519) and human mesenchymal stem cells (hMSC, Lonza, cat. PT-2501) were purchased from Lonza (Walkersville, MD).
# Cell Culture. […]
# [1] = curve of first compound, second compound 0.01 µM
# [2] = curve of first compound, second compound 0.0316 µM
# [3] = curve of first compound, second compound 0.1 µM
# [4] = curve of first compound, second compound 0.316 µM
# [5] = curve of first compound, second compound 1 µM
# [6] = second compound 0.01 µM, first compound 0.0316 µM
# [7] = second compound 0.01 µM, first compound 0.1 µM
# [8] = second compound 0.01 µM, first compound 0.316 µM
# [9] = second compound 0.01 µM, first compound 1 µM
# [10] = second compound 0.0316 µM, first compound 0.0316 µM
# [11] = second compound 0.0316 µM, first compound 0.1 µM
# [12] = second compound 0.0316 µM, first compound 0.316 µM
# [13] = second compound 0.0316 µM, first compound 1 µM
# [14] = second compound 0.1 µM, first compound 0.0316 µM
# [15] = second compound 0.1 µM, first compound 0.1 µM
# [16] = second compound 0.1 µM, first compound 0.316 µM
# [17] = second compound 0.1 µM, first compound 1 µM
# [18] = second compound 0.316 µM, first compound 0.0316 µM
# [19] = second compound 0.316 µM, first compound 0.1 µM
# [20] = second compound 0.316 µM, first compound 0.316 µM
# [21] = second compound 0.316 µM, first compound 1 µM
# [22] = second compound 1 µM, first compound 0.0316 µM
# [23] = second compound 1 µM, first compound 0.1 µM
# [24] = second compound 1 µM, first compound 0.316 µM
# [25] = second compound 1 µM, first compound 1 µM
Compound,IC50 [1],IC50 [2],IC50 [3],IC50 [4],IC50 [5],"viability, T/C [6]","viability, T/C [7]","viability, T/C [8]","viability, T/C [9]","viability, T/C [10]","viability, T/C [11]","viability, T/C [12]","viability, T/C [13]","viability, T/C [14]","viability, T/C [15]","viability, T/C [16]","viability, T/C [17]","viability, T/C [18]","viability, T/C [19]","viability, T/C [20]",further results
C=C(F)C(=O)N1CCN(c2nc(OCC3CCCN3C)nc3c2CCN(c2cccc4cccc(Cl)c24)C3)CC1CC#N (configuration not stated) + CNC(C)C(=O)NC1CN(S(=O)(=O)c2cccc(S(=O)(=O)N3CCC4CCC(C(=O)NC(c5ccccc5)c5ccccc5)N4C(=O)C(NC(=O)C(C)NC)C3)c2)CCC2CCC(C(=O)NC(c3ccccc3)c3ccccc3)N2C1=O,< 0.0316 µM,< 0.0316 µM,< 0.0316 µM,< 0.0316 µM,< 0.0316 µM,7.36%,8.05%,5.8%,3.58%,3.17%,4.55%,4.1%,3.88%,4.2%,5.22%,5.23%,3.23%,4.24%,3.28%,1.71%,"viability, T/C (second compound 0.01 µM, first compound 3.16 µM): 0.83%; viability, T/C (second compound 0.01 µM, first compound 10 µM): 0.19%; viability, T/C (second compound 0.0316 µM, first compound 3.16 µM): 0.38%; viability, T/C (second compound 0.0316 µM, first compound 10 µM): 0.16%; viability, T/C (second compound 0.1 µM, first compound 3.16 µM): 0.27%; viability, T/C (second compound 0.1 µM, first compound 10 µM): 0.18%; viability, T/C [21]: 2.27%; viability, T/C (second compound 0.316 µM, first compound 3.16 µM): 2.27%; viability, T/C (second compound 0.316 µM, first compound 10 µM): 0.18%; viability, T/C [22]: 3.34%; viability, T/C [23]: 3.4%; viability, T/C [24]: 2.52%; viability, T/C [25]: 1.53%; viability, T/C (second compound 1 µM, first compound 3.16 µM): 0.35%; viability, T/C (second compound 1 µM, first compound 10 µM): 0.24%"
COc1c(OCCCN2CCOCC2)ccc2c3n(c(=NC(=O)c4cnc(N)nc4)nc12)CCN3 + CNC(C)C(=O)NC1CN(S(=O)(=O)c2cccc(S(=O)(=O)N3CCC4CCC(C(=O)NC(c5ccccc5)c5ccccc5)N4C(=O)C(NC(=O)C(C)NC)C3)c2)CCC2CCC(C(=O)NC(c3ccccc3)c3ccccc3)N2C1=O,< 0.00316 µM,< 0.00316 µM,< 0.00316 µM,< 0.00316 µM,< 0.00316 µM,5.78%,6.94%,10.4%,12.5%,4.38%,4.6%,5.64%,9.69%,3.31%,2.53%,5.11%,4.24%,1.86%,3.02%,3.25%,"viability, T/C (second compound 0.01 µM, first compound 0.00316 µM): 5.54%; viability, T/C (second compound 0.01 µM, first compound 0.01 µM): 4.98%; viability, T/C (second compound 0.0316 µM, first compound 0.00316 µM): 4.98%; viability, T/C (second compound 0.0316 µM, first compound 0.01 µM): 5.47%; viability, T/C (second compound 0.1 µM, first compound 0.00316 µM): 2.54%; viability, T/C (second compound 0.1 µM, first compound 0.01 µM): 3.24%; viability, T/C (second compound 0.316 µM, first compound 0.00316 µM): 3.55%; viability, T/C (second compound 0.316 µM, first compound 0.01 µM): 2.22%; viability, T/C [21]: 3.07%; viability, T/C (second compound 1 µM, first compound 0.00316 µM): 2.39%; viability, T/C (second compound 1 µM, first compound 0.01 µM): 2.16%; viability, T/C [22]: 2.41%; viability, T/C [23]: 2.12%; viability, T/C [24]: 1.61%; viability, T/C [25]: 2.15%"
O=C(c1ccc(F)c(F)c1Nc1ccc(I)cc1F)N1CC(O)([C@@H]2CCCCN2)C1,–,–,–,–,–,–,–,–,–,–,–,–,–,–,–,–,–,–,–,–,"viability, T/C (compound 0.00316 µM): 94.1% and 97.7% and 117%; viability, T/C (compound 0.01 µM): 116% and 99.4% and 109%; viability, T/C (compound 0.0316 µM): 98.1% and 97.8% and 122%; viability, T/C (compound 0.1 µM): 116% and 111% and 136%; viability, T/C (compound 0.316 µM): 132% and 119% and 145%; viability, T/C (compound 1 µM): 126% and 119% and 145%; IC50 (curve of compound): > 1 µM"

# Source: PubChem BioAssay AID1963439 (Molecular Pharmacology Branch, DTP, NCI, 2024)
